Data on 23 sequences can be found in US8318670B2, “Antigens targeted by pathogenic AI4 T cells in type 1 diabetes and uses thereof” (Albert Einstein College of Medicine of Yeshiva University, priority 2004, dated 2012).

Where no end group is shown, it is not given here.

For the first data set, the system named is AI4 CTL. The data set can be described thus: 51Cr-release cytotoxicity assay, AI4 CTL against peptide-pulsed RMA-S target cells. Type of data set: cell-based, mouse. The settings on record: RMA-S target cells, E:T ratio of 40, lower peptide concentrations (FIG. 6B); read-out: half-maximal activity, AI4 cytotoxic response. On the procedure:
Cytotoxicity assays for screening of HPLC fractions and peptide libraries. AI4 CTL were generated by culturing splenocytes from NOD.AI4αβTg mice with IFN-γ-treated NIT-1 cells and 12.5 U/ml IL-2 as described (DiLorenzo et al., 2002). NY8.3 CTL were generated by culturing splenocytes from 8.3-NOD mice with mitomycin C-treated NOD splenocytes pulsed with 10 nM NRP-A7 peptide as described (DiLorenzo et al., 2002). CTL were used in 16 h ^51Cr-release cytotoxicity assays to test for recognition of peptide-pulsed target cells at an E:T ratio of 40:1 as described (DiLorenzo et al., 2002). TAP-deficient cell lines RMA-S, RMA-S/K^d, T2, and T2-K^d were used as targets. Synthetic peptides or peptide library mixes were used at concentrations indicated in the figures, and 1.6×10^9 NIT-1 cell equivalents of peptide were used for HPLC fraction screening assays.
Cytotoxicity Assay. AI4 CTL were generated by culturing splenocytes from NOD.AI4αβ Tg mice with IFN-γ-treated NIT-1β cells (Hamaguchi et al., 1991) and IL-2 as described (DiLorenzo et al., 2002). CTL were used in 16 h ^51Cr-release cytotoxicity assays to test for recognition of peptide-pulsed target cells at an effector to target ratio of 40:1 as described (DiLorenzo et al., 2002). TAP-deficient RMA-S cells (Kerre et al., 1986) were used as targets.
With YAIENYLEL [MimA2, YAIENYLEL], the EC50 was determined as 0.01 nM.

The same data set, now with this note: RMA-S targets, peptide 0.1 nM to 1 μM (FIG. 11A).
As to “DMHENYMEM [DM9, natural peptide of X-linked lymphocyte regulated complex]”, the “AI4 CTL response to natural peptides with AI4-preferred motif” value (“AI4 CTL response to natural peptides” below) is recorded as “nonreacting”. On the same count and under the same terms, as for “EVVESYMYL [EL9, natural peptide, similar to 1,2-α-mannosidase IC]”, the entry is “nonreacting”. Turning to “FQDENYLYL (listed as Mus musculus) [FNL9, natural peptide of DMK and MRCKβ]”, the “AI4 CTL response to natural peptides” value is “mirroring that obtained with the Mim peptide”. Same read-out and setting: as for “FTDESYLEL [FSL9, natural peptide of polymyositis/scleroderma autoantigen 2]”, the entry is “nonreacting”. The same measure, in the same setting: as for “HEAESYML [HL9, natural peptide of calcitonin receptor precursor]”, the entry is “nonreacting”. On the same count and under the same terms, to “QYLENYLWM (listed as Mus musculus) [QM9, natural peptide of aquarius]” belongs “more weakly”; to “RLFENYIEL (listed as Mus musculus) [RIL9, natural peptide of exocyst complex component Sec5]”, “more weakly”. “RTSENYLEL [RLL9, natural peptide of MKIAA1569 protein]”: the “AI4 CTL response to natural peptides” value is listed as “nonreacting”. The same measure, in the same setting: as for “TNKENYTEL [TL9, natural peptide of stromal cell derived factor receptor 1]”, the entry is “nonreacting”; as for “VMLENYTHL (listed as Mus musculus) [VML9, natural peptide, similar to KRAB zinc finger protein]”, “more weakly”.

As to “VTLENYTHL [VTL9, natural peptide of hypothetical protein]”, the “AI4 CTL response to natural peptides” value is “nonreacting”.

The data set is the same for the next values; noted with them: mimotope and alanine-substituted peptides, varying concentrations, E:T ratio of 40.
As to YAIENYLEL [MimA2, YAIENYLEL], the “AI4 cytotoxic response towards peptide-pulsed RMA-S target cells” value is recorded as “strongest AI4 CTL response of all of the peptides”. On the same count and under the same terms, as for YFIANYLEL [A4], the entry is “significantly lower responses”; as for YFIENALEL [A6], “significantly lower responses”; as for YFIENYAEL [A7], “decreased”.

In the case of YFIENYLAL [A8], the “AI4 cytotoxic response towards peptide-pulsed RMA-S target cells” value is reported as “decreased”.

With YFIENYLEL [Mim, YFIENYLEL], the “AI4 cytotoxic response towards peptide-pulsed RMA-S target cells” value is reported as “best response”.

Another data set relates to T cells cultured from NOD islets. The data set can be described thus: IFN-γ ELISPOT of T cells cultured from NOD islets with peptide-pulsed APC. Format: cell-based, mouse. The settings on record: 1 μM peptide, T cells from pooled islets of 11-week-old NOD mice, 40 h. On the procedure: ELISPOT assay. ELISPOT plates (MAHA S45 10; Millipore, Billerica, Mass.) were precoated with anti-murine IFN-γ Ab (R4-6A2; BD Biosciences Pharmingen, San Diego, Calif.) and blocked with 1% BSA (Fraction V, Sigma-Aldrich, St. Louis, Mo.) in PBS. APC (Mitomycin C-treated NOD splenocytes) were added at 2×10^4 cells/well and pulsed for 1 h with 1 μM of each peptide (MimA2, NRP-V7, INS-19, INS BC, GAD65206, GAD65546). Cultured islet T cells were added at 2×10^4 cells/well and plates were incubated at 37° C. for 40 h. IFN-γ secretion was detected with a second, biotinylated anti-murine IFN-γ Ab (XMG1.2; BD Biosciences Pharmingen, San Diego, Calif.). Spots were developed using streptavidin-alkaline phosphatase (Zymed Laboratories, Inc., South San Francisco, Calif.) and 5-bromo-4-chloro-3-indolyl-phosphate/nitroblue tetrazolium chloride substrate (Sigma-Aldrich, St. Louis, Mo.).
IFN-γ ELISPOT. ELISPOT plates (MAHA S45 10; Millipore) were coated with anti-murine IFN-γ Ab (R4-6A2; BD Biosciences Pharmingen) and blocked with 1% BSA (Sigma-Aldrich) in PBS. APC (Mitomycin C-treated NOD splenocytes) were added at 2×10^4 cells/well and pulsed with 1 μM peptide. Cultured islet T cells were added at 2×10^4 cells/well and plates were incubated at 37° C. for 40 h. Secreted IFN-γ was detected with a second, biotinylated anti-murine IFN-γ Ab (XMG1.2; BD Biosciences Pharmingen). Spots were developed using streptavidin-alkaline phosphatase (Zymed Laboratories) and 5-bromo-4-chloro-3-indolyl-phosphate/nitroblue tetrazolium chloride substrate (Sigma-Aldrich). For all incubation steps, plate bottoms were covered with aluminum foil to distribute heat uniformly across the plate as described (Kalyuzhny and Stark, 2001).
Consider “FQDENYLYL (listed as Mus musculus) [FNL9, natural peptide of DMK and MRCKβ]”, for which the “IFN-γ spots in response to peptide” value is listed as “recognized by a detectable population of T cells”. In the case of “FYTPMSRREV (listed as Mus musculus) [INS BC, murine insulin 2 B25-C34]”, the “IFN-γ spots in response to peptide” value was “No spots were detected”. Turning to “KYNKANVFL (peptide NRP-V7) [mimotope peptide recognized by 8.3-like T cells]”, the “IFN-γ spots in response to peptide” value is “detectable”. Still for that read-out and setting: to “LYLVCGERL (listed as Mus musculus) [INS-L9, G9L variant of murine insulin B15-23]” belongs “detectable”. Turning to “SYQPLGDKV (listed as Mus musculus) [GAD65546, murine GAD65 546-554 peptide]”, the “IFN-γ spots in response to peptide” value was “unable to detect responses”.

Regarding “TYEIAPVFV (listed as Mus musculus) [GAD65206, murine glutamic acid decarboxylase 65 206-214]”, the “IFN-γ spots in response to peptide” value is listed as “unable to detect responses”.

The next data set has as its target T1, H-2K^d (Mus musculus, UniProt P01902).
T1 sequence (P01902 22-368): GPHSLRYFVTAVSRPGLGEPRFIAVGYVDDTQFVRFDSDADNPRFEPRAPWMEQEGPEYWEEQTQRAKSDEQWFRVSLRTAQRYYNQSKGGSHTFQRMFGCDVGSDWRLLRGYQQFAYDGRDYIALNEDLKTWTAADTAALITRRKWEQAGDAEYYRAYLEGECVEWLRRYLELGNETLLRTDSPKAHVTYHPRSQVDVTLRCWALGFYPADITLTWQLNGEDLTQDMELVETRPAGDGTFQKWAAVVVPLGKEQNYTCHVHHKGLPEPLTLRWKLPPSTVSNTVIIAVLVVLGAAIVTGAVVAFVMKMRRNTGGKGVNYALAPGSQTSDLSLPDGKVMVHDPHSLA
T1 sequence (P01887 21-119 partner): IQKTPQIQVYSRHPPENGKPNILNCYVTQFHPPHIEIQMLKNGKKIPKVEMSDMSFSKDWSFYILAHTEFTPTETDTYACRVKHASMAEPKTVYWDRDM
Experiment: not given
The settings on record: cited from earlier work.
With “LYLVCGERI (listed as Mouse sp.) [INS-I9, G9I variant of murine insulin B15-23]”, the “binding to H-2K^d relative to insulin B15-23” value is reported as “more stable binding”.

On to “LYLVCGERL (listed as Mus musculus) [INS-L9, G9L variant of murine insulin B15-23]”, for which the “binding to H-2K^d relative to insulin B15-23” value is recorded as “more stable binding”.
